Assay results reported in patent US8084203B2, “Methods for the determination of telomere length in a semi-automatic manner of every single cell in a immobilized cell population” (Fundacion Centro Nacional de Investigaciones Oncologicas …, priority 2008, dated 2011).

System: epidermal stem cell
Text: Unless otherwise specified, all mice used in this study were males of approximately 2 months of age and from a C57BL6 genetic background. Mice of a FVB genetic background (2 months-old) were also used in Supplementary FIG. S1. Generation and characteristics of the Terc−/− and the K15-EGFP mice were previously described (Morris et al., 2004; Blasco et al., 1997).
To induce epidermal stem cell “mobilization” (activation, migration and proliferation), tail skin in the telogen (resting) phase of the hair cycle was topically treated every 48 h with TPA (20 nmol in acetone) for a total of four doses. Control mice of each genotype were treated with acetone alone. 24-hours after the last TPA treatment, mice were sacrificed and the tail skin analysed.
For telomere length analyses, samples from mouse tail and back skin, small intestine, cornea, testis and brain were harvested and fixed o/n in neutralbuffered formalin at 4° C., dehydrated through graded alcohols and xylene, and embedded in paraffin. Prior to embedding, dissected skin was cut parallel to the spine in order to obtain longitudinal hair follicle sections. The intestinal tract was flushed with PBS and rolled up in a compact circle using longitudinally oriented jejunal sections for analysis. For cornea and testis analyses, whole eyes and testis were cut in half prior to dehydration. Finally, brain was coronal-dissected to harvest the rostral hippocampus. In all cases, […] sections were used for QFISH and immunostaining analyses.
For Q-FISH, paraffin-embedded tissue sections were hybridized with a PNA-tel Cy3-labelled probe and telomere length was determined as described (González-Suárez et al., 2000; Muñoz et al., 2005; Zijlmans et al., 1997). Slides were deparaffinized in three xylene washes (3 m each), then treated for 3 m with a 100, 95 and 70% ethanol series, followed by telomere Q-FISH protocol performed as described (Samper et al., 2000). DAPI, Cy3 signals were acquired simultaneously into separate channels using a confocal ultraspectral microscope (Leica TCS-SP2-A-OBS-UV) using a PL APO 20×/0.70 PH2 as lens with Leica LCS software and maximum projections from image stacks (10 sections at steps 1.0 μm) were generated for image quantification. The DPSS-561 laser (Cy3 laser) was hold at a constant intensity to capture all the mouse tissues images.
High throughput quantitative image analysis was performed on confocal images using the Metamorph platform (version 6.3r6; Molecular Devices, Union City, Calif.). The DAPI image was used to define the nuclear area and the Cy3 image to quantify of telomere fluorescence. In all cases, background noise was subtracted from each image prior to making […] measurements. The DAPI images were signal-intensity thresholded, segmented and converted to 1-bit binary image. The binary DAPI mask was applied to the matching Cy3 to obtain a combined image with telomere fluorescence information for each
nucleus. Cy3 fluorescence intensity (telomere fluorescence) was measured as “average gray values” (total gray value/nuclei area) units (arbitrary units of fluorescence). These “average telomere fluorescence” values always represent the average Cy3 pixel intensity for the total nuclear area, and not the average value of individual telomere spot intensities, therefore ruling out that differences in nuclear size may influence telomere length measurements. A code of four colours was used to classify the nuclei according to their average telomere fluorescence. Telomere fluorescence ranges were initially set up to allocate in each range roughly ¼ of the total cells of a given tissue in wild type mice of 2 months of age. […] Telomere fluorescence ranges of a given tissue obtained in this manner were then maintained constant between genotypes, treatment and ages to facilitate comparisons.

[1] = wild-type mice, TPA-treated vs untreated, FIG. 1d, significant
[2] = wild-type mice, upon TPA treatment, FIG. 6

CCCCCCCCCCCCCC(=O)O[C@@H]1[C@@H](C)[C@@]2(O)[C@@H](C=C(CO)C[C@]3(O)C(=O)C(C)=C[C@@H]23)[C@H]2C(C)(C)[C@]12OC(C)=O [TPA]
percentage of cells with the longest telomeres at the TA compartments and the interfollicular epidermis (telomerase-deficient G1 Terc-/- mice, TPA-treated skin, FIG. 1c,d): did not show increased percentage
percentage of cells with the longest telomeres at the hair bulge (telomerase-deficient G1 Terc-/- mice, TPA-treated vs untreated skin, FIG. 1c): reduction
total number of epidermal cells showing the longest telomeres (telomerase-deficient G1 Terc-/- mice, TPA-treated vs untreated skin, P<0.01, FIG. 1e): decreased
frequency of long telomeres in all hair follicle compartments (telomere length histograms) (telomerase-deficient G1 Terc-/- mice, TPA-treated, FIG. 6): decreased frequency of long telomeres
total number of epidermal cells showing 1800-3000 a.u. of telomere fluorescence (wild-type mice, TPA-treated vs untreated skin, P<0.05, FIG. 1e): significantly increased
cells with the longest telomeres in the TA compartments (hair bulb and infundibulum) (wild-type mice, TPA-treated vs untreated tail skin): accumulation
percentage of the cells with the longest telomeres at the hair bulge (wild-type mice, TPA-treated vs untreated tail skin, longest telomeres = 1800-3000 a.u. telomere fluorescence): decreased
absolute number of cells containing the longest telomeres at the hair bulge [1]: decreased at the hair bulge
absolute number of cells containing the longest telomeres in the other epidermal compartments [1]: concomitantly increased
frequency of long telomeres in hair bulge cells (telomere length histograms) [2]: decreased frequency of long telomeres
telomere length in cells located at the TA compartment and the interfollicular epidermis (telomere length histograms) [2]: increased telomere length
